Assay results as given in patent publication US20220016102A1, “ER PROTEIN REGULATORS AND USE THEREOF” (ShanghaiTech University, priority 2018, published 2022).

Biological target: T1, ER protein (Homo sapiens, UniProt P03372)
T1 sequence (P03372 1-595): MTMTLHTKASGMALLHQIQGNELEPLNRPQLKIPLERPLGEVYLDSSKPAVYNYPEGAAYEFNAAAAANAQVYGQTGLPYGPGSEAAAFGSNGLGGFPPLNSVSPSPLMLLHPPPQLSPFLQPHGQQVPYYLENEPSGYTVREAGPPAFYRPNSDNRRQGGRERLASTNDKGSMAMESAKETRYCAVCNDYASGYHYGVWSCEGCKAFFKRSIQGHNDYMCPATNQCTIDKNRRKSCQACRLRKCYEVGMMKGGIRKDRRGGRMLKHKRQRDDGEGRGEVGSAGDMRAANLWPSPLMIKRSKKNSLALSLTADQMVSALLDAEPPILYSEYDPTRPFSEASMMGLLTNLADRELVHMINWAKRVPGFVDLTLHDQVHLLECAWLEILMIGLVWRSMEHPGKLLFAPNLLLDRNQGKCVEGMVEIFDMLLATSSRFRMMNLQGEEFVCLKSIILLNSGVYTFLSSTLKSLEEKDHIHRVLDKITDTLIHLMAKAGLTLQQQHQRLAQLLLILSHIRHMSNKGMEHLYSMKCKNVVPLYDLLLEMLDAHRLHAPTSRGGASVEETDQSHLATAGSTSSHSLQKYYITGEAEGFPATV
Assay: Western blotting analysis of ER protein degradation in T47D cell line
Type: cell-based
Design: western blotting detection of the level of intracellular ER protein; endogenous in cells; host or cells: T47D
Details: T47D cells, FIGS. 1(A)-(O)
Description: T47D cells were cultured in an incubator with 5% CO2 at 37° C. Complete medium was RPMI1640 supplemented with 10% Foetal bovine serum (FBS), 100 U/ml Penicillin and Streptomycin, and 0.77 μg/mL recombinant human insulin. Western blotting analysis of T47D cell line: • Cells were plated in a 24-well plate at a cell seeding […] of 1.5×10^5 cells/mL, with 1 ml cell suspensions per well. • After 24 h the cells were adherent, and the cells in each well were treated with 1 μL a certain concentration of ER protein regulators of the present disclosure. […] Afterwards, the membranes were block by using the Blocking Buffer, and the antibody incubation and development were performed. (The above procedures were all based on the antibody product manual of the manufacturer) DC50 value (the drug concentration required for degrading proteins by 50%, abbreviated as DC50) reads method: comparing the gray values of the Western blotting bands for the drug treatment with the gray values of the Western blotting band for the DMSO control, and reading the drug concentration range corresponding to the gray value of the Western blotting bands for the drug treatment which is equal to half of the gray value of the Western blotting band for the DMSO control. DC50 value could also be calculated as follows: using software ImageJ to quantify the gray values of the Western blotting bands for the drug treatment, fitting the relationship curve between drug concentrations and gray values, and from the fitted curve, calculating the drug concentration corresponding to half of the gray value of the Western blotting band for the DMSO control.

Which “Degradation of the ER protein in the T47D cell line (Western blotting)” value does the source give for `NCCOc1ccc(C(=C(CCCl)c2ccccc2)c2ccc(O)cc2)cc1` [Toremifene derivative B, 4-(1-(4-(2-aminoethoxy)phenyl)-4-chloro-2-phenylbut-1-en-1-yl)phenol, reference compound] here?
Its value is “did not degrade the ER protein”.

Same assay, conditions: degradation of ER protein, T47D cells, drug treatment for 16 hours, Western blot gray values vs DMSO control; read-out: DC50 (nM)/T47Dcell line

Which DC50 does the source give for `CCC(=C(c1ccc(O)cc1)c1ccc(OCCNC(=O)CCOCCOCCOCCC(=O)N[C@H](C(=O)N2C[C@H](O)C[C@H]2C(=O)NCc2ccc(-c3scnc3C)cc2)C(C)(C)C)cc1)c1ccc(O)cc1` [SIAIS208174, (2S,4R)-1-((S)-19-(4-(1,2-bis(4-hydroxyphenyl)but-1-en-1-yl)phenoxy)-2-(tert-butyl)-4,16-dioxo-7,10,13-trioxa-3,17-diazanonadecanoyl)-4-hydroxy-N-(4-(4-methylthiazol-5-yl)benzyl)pyrrolidine-2-carboxamide] here?
Its DC50 is < 50 nM.

For `Cc1ncsc1-c1ccc(CNC(=O)[C@@H]2C[C@@H](O)CN2C(=O)[C@@H](NC(=O)CCc2ccc(CCC(=O)N(C)CCOc3ccc(/C(=C(/CCCl)c4ccccc4)c4ccccc4)cc3)cc2)C(C)(C)C)cc1` [SIAIS208125, (2S,4R)-1-((S)-2-(3-(4-(3-((2-(4-((Z)-4-chloro-1,2-diphenylbut-1-en-1-yl)phenoxy)ethyl)(methyl)amino)-3-oxopropyl)phenyl)propanamido)-3,3-dimethylbutanoyl)-4-hydroxy-N-(4-(4-methylthiazol-5-yl)benzyl)pyrrolidine-2-carboxamide], which DC50 is on record?
The DC50 was < 200 nM.

With `CCC(=C(c1ccc(O)cc1)c1ccc(OCCNC(=O)CCCCCCCC(=O)N[C@H](C(=O)N2C[C@H](O)C[C@H]2C(=O)NCc2ccc(-c3scnc3C)cc2)C(C)(C)C)cc1)c1ccc(O)cc1` [SIAIS208167, N1-(2-(4-(1,2-bis(4-hydroxyphenyl)but-1-en-1-yl)phenoxy)ethyl)-N9-((S)-1-((2S,4R)-4-hydroxy-2-((4-(4-methylthiazol-5-yl)benzyl)carbamoyl)pyrrolidin-1-yl)-3,3-dimethyl-1-oxobutan-2-yl)nonanediamide] as the compound, how does the DC50 read?
The DC50 was < 50 nM.

With `Cc1ncsc1-c1ccc(CNC(=O)[C@@H]2C[C@@H](O)CN2C(=O)[C@@H](NC(=O)CCCC(=O)N2CCN(CCOc3ccc(C(=C(CCCl)c4ccccc4)c4ccc(O)cc4)cc3)CC2)C(C)(C)C)cc1` [SIAIS251042, (2S,4R)-1-((S)-2-(5-(4-(2-(4-(4-chloro-1-(4-hydroxyphenyl)-2-phenylbut-1-en-1-yl)phenoxy)ethyl)piperazin-1-yl)-5-oxopentanamido)-3,3-dimethylbutanoyl)-4-hydroxy-N-(4-(4-methylthiazol-5-yl)benzyl)pyrrolidine-2-carboxamide] as the compound, how does the DC50 read?
Its DC50 is < 50 nM.

How did the DC50 turn out when `Cc1ncsc1-c1ccc(CNC(=O)[C@@H]2C[C@@H](O)CN2C(=O)[C@@H](NC(=O)CCCCC(=O)N2CCN(CCOc3ccc(C(=C(CCCl)c4ccccc4)c4ccc(O)cc4)cc3)CC2)C(C)(C)C)cc1` [SIAIS251043, (2S,4R)-1-((S)-2-(6-(4-(2-(4-(4-chloro-1-(4-hydroxyphenyl)-2-phenylbut-1-en-1-yl)phenoxy)ethyl)piperazin-1-yl)-6-oxohexanamido)-3,3-dimethylbutanoyl)-4-hydroxy-N-(4-(4-methylthiazol-5-yl)benzyl)pyrrolidine-2-carboxamide] was run?
Its DC50 is < 50 nM.

For `Cc1ncsc1-c1ccc(CNC(=O)[C@@H]2C[C@@H](O)CN2C(=O)[C@@H](NC(=O)CCCCCCCCC(=O)N2CCN(CCOc3ccc(C(=C(CCCl)c4ccccc4)c4ccc(O)cc4)cc3)CC2)C(C)(C)C)cc1` [SIAIS251047, (2S,4R)-1-((S)-2-(10-(4-(2-(4-(4-chloro-1-(4-hydroxyphenyl)-2-phenylbut-1-en-1-yl)phenoxy)ethyl)piperazin-1-yl)-10-oxodecanamido)-3,3-dimethylbutanoyl)-4-hydroxy-N-(4-(4-methylthiazol-5-yl)benzyl)pyrrolidine-2-carboxamide], which DC50 is on record?
Its DC50 is < 50 nM.

For `O=C(CCCCCCNc1cccc2c1CN(C1CCC(=O)NC1=O)C2=O)NCCOc1ccc(C(=C(CCCl)c2ccccc2)c2ccc(O)cc2)cc1` (centres unmarked) [SIAIS251033, N-(2-(4-(4-chloro-1-(4-hydroxyphenyl)-2-phenylbut-1-en-1-yl)phenoxy)ethyl)-7-((2-(2,6-dioxopiperidin-3-yl)-1-oxoisoindolin-4-yl)amino)heptanamide], which DC50 is on record?
The DC50 was 50 nM.

For `O=C(CCCCCCNc1cccc2c1C(=O)N(C1CCC(=O)NC1=O)C2=O)NCCOc1ccc(C(=C(CCCl)c2ccccc2)c2ccc(O)cc2)cc1` (centres unmarked) [SIAIS208145, N-(2-(4-(4-chloro-1-(4-hydroxyphenyl)-2-phenylbut-1-en-1-yl)phenoxy)ethyl)-7-((2-(2,6-dioxopiperidin-3-yl)-1,3-dioxoisoindolin-4-yl)amino)heptanamide], which DC50 is on record?
Its DC50 is < 100 nM.

With `Cc1ncsc1-c1ccc(CNC(=O)[C@@H]2C[C@@H](O)CN2C(=O)[C@@H](NC(=O)CCCCCC(=O)N(C)CCOc2ccc(/C(=C(/CCCl)c3ccccc3)c3ccccc3)cc2)C(C)(C)C)cc1` [SIAIS180029, N1-(2-(4-((Z)-4-chloro-1,2-diphenylbut-1-en-1-yl)phenoxy)ethyl)-N7-((S)-1-((2S,4R)-4-hydroxy-2-((4-(4-methylthiazol-5-yl)benzyl)carbamoyl)pyrrolidin-1-yl)-3,3-dimethyl-1-oxobutan-2-yl)-N1-methylheptanediamide] as the compound, how does the DC50 read?
Its DC50 is 100 nM.

How did the DC50 turn out when `Cc1ncsc1-c1ccc(CNC(=O)[C@@H]2C[C@@H](O)CN2C(=O)[C@@H](NC(=O)CCOCCOCCOCCOCCC(=O)N(C)CCOc2ccc(/C(=C(/CCCl)c3ccccc3)c3ccccc3)cc2)C(C)(C)C)cc1` [SIAIS180025, N1-(2-(4-((Z)-4-chloro-1,2-diphenylbut-1-en-1-yl)phenoxy)ethyl)-N16-((S)-1-((2S,4R)-4-hydroxy-2-((4-(4-methylthiazol-5-yl)benzyl)carbamoyl)pyrrolidin-1-yl)-3,3-dimethyl-1-oxobutan-2-yl)-N1-methyl-4,7,10,13-tetraoxahexadecanediamide] was run?
Its DC50 is < 50 nM.

How did the DC50 turn out when `Cc1ncsc1-c1ccc(CNC(=O)[C@@H]2C[C@@H](O)CN2C(=O)[C@@H](NC(=O)CCc2ccc(CCC(=O)NCCOc3ccc(C(=C(CCCl)c4ccccc4)c4ccc(O)cc4)cc3)cc2)C(C)(C)C)cc1` [SIAIS208127, (2S,4R)-1-((S)-2-(3-(4-(3-((2-(4-(4-chloro-1-(4-hydroxyphenyl)-2-phenylbut-1-en-1-yl)phenoxy)ethyl)amino)-3-oxopropyl)phenyl)propanamido)-3,3-dimethylbutanoyl)-4-hydroxy-N-(4-(4-methylthiazol-5-yl)benzyl)pyrrolidine-2-carboxamide] was run?
Its DC50 is < 100 nM.

For `Cc1ncsc1-c1ccc(CNC(=O)[C@@H]2C[C@@H](O)CN2C(=O)[C@@H](NC(=O)CCOCCOCCOCCOCCC(=O)N2CCN(CCOc3ccc(C(=C(CCCl)c4ccccc4)c4ccc(O)cc4)cc3)CC2)C(C)(C)C)cc1` [SIAIS251051, (2S,4R)-1-((S)-2-(tert-butyl)-19-(4-(2-(4-(4-chloro-1-(4-hydroxyphenyl)-2-phenylbut-1-en-1-yl)phenoxy)ethyl)piperazin-1-yl)-4,19-dioxo-7,10,13,16-tetraoxa-3-azanonadecanoyl)-4-hydroxy-N-(4-(4-methylthiazol-5-yl)benzyl)pyrrolidine-2-carboxamide], which DC50 is on record?
Its DC50 is < 50 nM.

Which DC50 does the source give for `CCC(=C(c1ccc(O)cc1)c1ccc(OCCNC(=O)CCCCCCCCCC(=O)N[C@H](C(=O)N2C[C@H](O)C[C@H]2C(=O)NCc2ccc(-c3scnc3C)cc2)C(C)(C)C)cc1)c1ccc(O)cc1` [SIAIS208169, N1-(2-(4-(1,2-bis(4-hydroxyphenyl)but-1-en-1-yl)phenoxy)ethyl)-N11-((S)-1-((2S,4R)-4-hydroxy-2-((4-(4-methylthiazol-5-yl)benzyl)carbamoyl)pyrrolidin-1-yl)-3,3-dimethyl-1-oxobutan-2-yl)undecanediamide] here?
The DC50 was < 50 nM.
